Measured values taken from US20260259169A1, “BETA-LACTAMASE SUBSTRATE COMPOUNDS AND ELECTROCHEMICAL DETECTION METHODS USING THEM” (priority 2023, published 2026).

How the values were obtained:
OXA-48 [1] = assay: Amperometric detection of beta-lactamase type producing bacteria strains; format: cell-based; details: 6.0 mM substrate, HMRZ-86 1.2 mM; qualitative
Experimental: (§1) The possibility to detect different beta-lactamase type producing bacteria strains was also tested. As reference, a reference medium comprising 1.2 mM beta-lactamase substrate compound HMRZ-86 was prepared as well.

OXA-40 = assay: as above; format: cell-based; details: 6.0 mM substrate, HMRZ-86 1.2 mM; qualitative
Experimental: as §1

CTXM = assay: as above; format: cell-based; details: 6.0 mM substrate, HMRZ-86 1.2 mM; qualitative
Experimental: as §1

OXA-58 [2] = assay: as above; format: cell-based; details: 6.0 mM substrate, HMRZ-86 1.2 mM; qualitative
Experimental: as §1

KPC-31 = KPC-31 (Klebsiella pneumoniae, UniProt Q9F663, D178Y/H272Y); assay: Reactivity with recombinant enzyme, amperometric; format: biochemical; details: class A carbapenemase, protein, CF3 compound 2.4 mM, HMRZ-86 1.2 mM, 10 minutes at 37° C.
IMP-4 = assay: Reactivity with recombinant enzyme, amperometric; format: biochemical; details: class B metallo-beta-lactamase, protein; CF3 compound 2.4 mM, HMRZ-86 1.2 mM; 10 minutes at 37° C.
IMP-16 = assay: Reactivity with recombinant enzyme, amperometric; format: biochemical; details: class B metallo-beta-lactamase, protein; CF3 compound 2.4 mM, HMRZ-86 1.2 mM; 10 minutes at 37° C.
OXA-23 = OXA-23 (Acinetobacter baumannii, UniProt Q9L4P2); assay: Reactivity with recombinant enzyme, amperometric; format: biochemical; details: class D carbapenemase, protein; CF3 compound 2.4 mM, HMRZ-86 1.2 mM; 10 minutes at 37° C.
VIM-13 = assay: Reactivity with recombinant enzyme, amperometric; format: biochemical; details: class B metallo-beta-lactamase, protein; CF3 compound 2.4 mM, HMRZ-86 1.2 mM; 10 minutes at 37° C.
IMP-22 = assay: Reactivity with recombinant enzyme, amperometric; format: biochemical; details: class B metallo-beta-lactamase, protein; CF3 compound 2.4 mM, HMRZ-86 1.2 mM; 10 minutes at 37° C.
IMP-1 = IMP-1 (Serratia marcescens, UniProt P52699); assay: Reactivity with recombinant enzyme, amperometric; format: biochemical; details: class B metallo-beta-lactamase, protein; CF3 compound 2.4 mM, HMRZ-86 1.2 mM; 10 minutes at 37° C.
IMP-14 = assay: Reactivity with recombinant enzyme, amperometric; format: biochemical; details: class B metallo-beta-lactamase, protein; CF3 compound 2.4 mM, HMRZ-86 1.2 mM; 10 minutes at 37° C.
OXA-48 [3] = assay: Reactivity with recombinant enzyme, amperometric; format: biochemical; details: class D carbapenemase, protein; CF3 compound 2.4 mM, HMRZ-86 1.2 mM; 10 minutes at 37° C.
IMP-61 = assay: Reactivity with recombinant enzyme, amperometric; format: biochemical; details: class B metallo-beta-lactamase, protein; CF3 compound 2.4 mM, HMRZ-86 1.2 mM; 10 minutes at 37° C.
CTX-M-14 = CTX-M-14 (Escherichia coli, UniProt Q9L5C7); assay: Reactivity with recombinant enzyme, amperometric; format: biochemical; details: class A ESBL, protein; CF3 compound 2.4 mM, HMRZ-86 1.2 mM; 10 minutes at 37° C.
OXA-58 [4] = assay: Reactivity with recombinant enzyme, amperometric; format: biochemical; details: class D carbapenemase, protein; CF3 compound 2.4 mM, HMRZ-86 1.2 mM; 10 minutes at 37° C.
VIM-11 = assay: Reactivity with recombinant enzyme, amperometric; format: biochemical; details: class B metallo-beta-lactamase, protein; CF3 compound 2.4 mM, HMRZ-86 1.2 mM; 10 minutes at 37° C.
IMP-18 = assay: Reactivity with recombinant enzyme, amperometric; format: biochemical; details: class B metallo-beta-lactamase, protein; CF3 compound 2.4 mM, HMRZ-86 1.2 mM; 10 minutes at 37° C.
OXA-143 = assay: Reactivity with recombinant enzyme, amperometric; format: biochemical; details: class D carbapenemase, protein; CF3 compound 2.4 mM, HMRZ-86 1.2 mM; 10 minutes at 37° C.
[5] = test system: bacteria strains producing the carbapenemase KPC type; assay: Amperometric detection in blood culture; format: cell-based; details: CF3 6.0 mM, HMRZ-86 1.2 mM
Experimental: The beta-lactamase with group β being CF3 (6.0 mM), as well as the reference HMRZ-86 (1.2 mM) were also tested with blood cultures comprising bacteria strains producing the carbapenemase KPC type, the metallo-beta-lactamase VIM type and the metallo-beta-lactamase NDM type, as well as a blood culture comprising no bacteria strains producing beta-lactamases (negative control ATCC).

KPC = KPC (Klebsiella pneumoniae, UniProt Q9F663); assay: Amperometric measurement of oxidation current with KPC in TPTZ buffer; format: biochemical; details: 30 minutes at 37° C.
Experimental: A medium comprising 1.2 mM of substrate in a succinate buffer of pH 5.5 was prepared for each of the 8 beta-lactamase substrate compounds (7 inventive ones and the HMRZ-86 reference one).
4 different samples to be analyzed were prepared, each comprising KPC as beta-lactamase in a standard 2,4,6-tri-2-pyridinyl-1,3,5-triazine (TPTZ) buffer but in different concentrations: 239.4, 59.85, 9.975 and 4.985 ng/ml (ng of KPC per mL of TPTZ buffer). The two first concentrations of KPC aim to determine the capacity of the derivative to detect the presence of beta-lactamase whereas the two lowest concentrations aim to address the limit of detection.
Each of the […] (in other words 32 combinations) and incubated for 30 minutes at 37° C. Next, an amperometric measurement was performed on all 32 of the incubated mediums, and the oxidation current was determined. The device used was a Metrohm Dropsens and the electrodes were Metrohm Dropsens SCPE 110 electrodes. The oxidation current is the maximum current value measured between 0.1 V and 0.5 V vs. Ag/AgCl.
To test the impact of the concentration of the beta-lactamase substrate compound on the possibility to detect beta-lactamases, a further medium comprising 2.4 mM of the beta-lactamase substrate compound with R being 2-nitro-4-cyanophenyl was prepared. […] The same four beta-lactamase concentrations as in Example 1 were tested (i.e. the same samples). The incubation and measurement were performed as in Example 1.
A medium comprising 6.0 mM of each substrate in a succinate buffer of pH 5.5 was prepared. 2 different samples to be analyzed were prepared, each comprising KPC as beta-lactamase type in a standard 2,4,6-tri-2-pyridinyl-1,3,5-triazine (TPTZ) buffer, but in different concentrations: 239.4 ng/ml and 59.85 ng/ml, respectively (ng of KPC per mL of TPTZ buffer). Each of the […] was added to each of the 2 mediums (in other words 6 combinations) and incubated for 30 minutes at 37° C. Next, an amperometric measurement was performed on all 6 of the incubated mediums, and the oxidation current was determined. The equipment used was the same as that of Example 1.

OXA-51 = assay: Reactivity with recombinant enzyme, amperometric; format: biochemical; details: class D carbapenemase, protein; CF3 compound 2.4 mM, HMRZ-86 1.2 mM; 10 minutes at 37° C.
NDM-1 = NDM-1 (Klebsiella pneumoniae, UniProt C7C422); assay: Reactivity with recombinant enzyme, amperometric; format: biochemical; details: class B metallo-beta-lactamase, protein; CF3 compound 2.4 mM, HMRZ-86 1.2 mM; 10 minutes at 37° C.
IMP-11 = assay: Reactivity with recombinant enzyme, amperometric; format: biochemical; details: class B metallo-beta-lactamase, protein; CF3 compound 2.4 mM, HMRZ-86 1.2 mM; 10 minutes at 37° C.
CTX-M-8 = assay: Reactivity with recombinant enzyme, amperometric; format: biochemical; details: class A ESBL, protein; CF3 compound 2.4 mM, HMRZ-86 1.2 mM; 10 minutes at 37° C.
CTX-M-2 = CTX-M-2 (Salmonella typhimurium, UniProt P74841); assay: Reactivity with recombinant enzyme, amperometric; format: biochemical; details: class A ESBL, protein; CF3 compound 2.4 mM, HMRZ-86 1.2 mM; 10 minutes at 37° C.

SMILES	detection (oxidation current) (OXA-48 [1])	detection (oxidation current) (OXA-40)	detection (oxidation current) (CTXM)	detection (oxidation current) (OXA-58 [2])	reactivity (detection) (IMP-4)	reactivity (detection) (IMP-16)	reactivity (detection) (OXA-23)	reactivity (detection) (VIM-13)	reactivity (detection) (IMP-22)	reactivity (detection) (IMP-1)	reactivity (detection) (IMP-14)	reactivity (detection) (OXA-48 [3])	reactivity (detection) (IMP-61)	reactivity (detection) (CTX-M-14)	reactivity (detection) (OXA-58 [4])	reactivity (detection) (VIM-11)	reactivity (detection) (IMP-18)	reactivity (detection) (OXA-143)	detection (oxidation current) [5]	reactivity (detection) (OXA-51)	further results
N#Cc1ccc(C=CC2=C(C(=O)O)N3C(=O)C(NC(=O)C(F)(F)F)C3SC2)cc1 (stereo not shown) [CF3]	capable of detecting	capable of detecting	capable of detecting	capable of detecting	Detected	Detected	Detected	Detected	Detected	Detected	Detected	Detected	Detected	Detected	Detected	Detected	Detected	Detected	capable of detecting	Detected	reactivity (detection) (KPC-31; listed as CF3/4-cyanophenyl): not detected; reactivity (detection) (KPC-31; listed as CF3/4-cyanostyryl): Not detected; detection of the lowest tested concentration of KPC (KPC; 6.0 mM substrate, KPC 59.85 ng/ml): capable to detect; detection of the highest concentration of KPC (KPC; 6.0 mM substrate, KPC 239.4 ng/ml): capable to detect; reactivity (detection) (NDM-1): Detected; reactivity (detection) (IMP-11): Detected; reactivity (detection) (CTX-M-8): Detected; reactivity (detection) (CTX-M-2): Detected
CC(C)(ON=C(C(=O)N[C@@H]1C(=O)N2C(C(=O)O)=C(C=Cc3ccc([N+](=O)[O-])cc3[N+](=O)[O-])CS[C@H]12)c1csc(N)n1)C(=O)O.O=C(O)C(F)(F)F [HMRZ-86, reference compound]	capable of detecting	does not detect	capable of detecting	does not detect	Detected	Detected	Not detected	Detected	Detected	Detected	Detected	Detected	Detected	Detected	Not detected	Detected	Detected	Detected	capable of detecting	Not detected	reactivity (detection) (KPC-31): Detected; detection of the beta-lactamases (oxidation current): KPC concentrations detected (KPC; 1.2 mM substrate, succinate buffer pH 5.5, KPC 239.4, 59.85, 9.975 and 4.985 ng/ml): all 4 concentrations; detection of the beta-lactamase concentration of 9.975 ng/mL (KPC; 1.2 mM substrate, KPC 9.975 ng/mL): could detect; reactivity (detection) (NDM-1): Detected; reactivity (detection) (IMP-11): Detected; reactivity (detection) (CTX-M-8): Detected; reactivity (detection) (CTX-M-2): Detected
